This assay relates to SV40 immortalized human corneal epithelial cells (HCE-T). Put plainly: Evaluation test of protective effect on corneal epithelial cell (drying load). Conditions: 1 h pre-culture with 0.25% (w/v) propylene glycol and/or 0.03% (w/v) sodium hyaluronate, dried 7.5 minutes, FIG. 1. In kind it is cell-based. As for the experimental part:
SV40 immortalized human corneal epithelial cells: (HCE-T: RIKEN BioResource Center, Japan, Cell No.: RCB2280) were seeded to a 96-well plate (1×10^4 cells/well) and cultured for one day in an SHEM culture medium. On the next day, the culture medium was replaced with a D-MEM/F12 culture medium containing 0.25% (w/v) propylene glycol, 0.03% (w/v) sodium hyaluronate, or 0.25% (w/v) propylene glycol and 0.03% (w/v) sodium hyaluronate, and thereafter the corneal epithelial cells were cultured for one hour (hereinafter, each also referred to as a “propylene glycol alone group,” a “hyaluronic acid alone group,” or a “propylene glycol/hyaluronic acid combination group”). It is noted that a group that a culture medium was replaced with a D-MEM/F12 culture medium not containing a tested substance and thereafter the corneal epithelial cells were cultured for one hour was defined as a “vehicle group”. After culture, a culture medium of each group was replaced with a D-MEM/F12 culture medium not containing a tested substance and then cells were dried for 7.5 minutes. After drying load, cell viability was measured using Cell Proliferation Assay Kit (manufactured by Promega, catalogue No.: G3580) (corresponding to absorbance of 490 nm).

Consider `CC(O)CO` (centres unmarked) [propylene glycol], for which the “Suppression of decrease in cell viability of corneal epithelial cells due to drying load” value is listed as “not sufficiently suppressed”. In the case of sodium hyaluronate [hyaluronic acid], the “Suppression of decrease in cell viability of corneal epithelial cells due to drying load” value is given as “not sufficiently suppressed”.

The values are drawn from US20140088039A1, “OPHTHALMIC SOLUTION CONTAINING HYALURONIC ACID OR SALT THEREOF AND PROPYLENE GLYCOL” (priority 2011, published 2014).
